Assay results taken from US8148391B2 (Cephalon, Inc., priority 2006, dated 2012).
Like-named read-outs stand apart in the source and are kept apart here.

Columns and labels:
[1] = target: T1, baculovirus-expressed ALK (Homo sapiens, UniProt Q9UM73); assay: ALK Kinase Assay (ELISA-type, time-resolved fluorescence); type: biochemical
T1 construct: host or cells: baculovirus expression system
In short: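 Substrate coating: phospholipase C-γ, 10 μg/mL in TBS. Kinase step: 30 ng/ml ALK, 15 min, 37° C. Detection and analysis: Eu-N1 PT66 antibody, with IC50 fitted as a sigmoidal variable-slope dose-response curve.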

[2] = target: T2, c-Met (cytoplasmic domain) (Homo sapiens, UniProt P08581); assay: c-Met Kinase Assay (same methods as for ALK, with modifications); type: biochemical
T2 construct: 10 ng/mL c-Met (cytoplasmic domain, Invitrogen Corporation #PV3143); purchased Invitrogen Corporation PV3143
T2 sequence (P08581 956-1390 limits assumed): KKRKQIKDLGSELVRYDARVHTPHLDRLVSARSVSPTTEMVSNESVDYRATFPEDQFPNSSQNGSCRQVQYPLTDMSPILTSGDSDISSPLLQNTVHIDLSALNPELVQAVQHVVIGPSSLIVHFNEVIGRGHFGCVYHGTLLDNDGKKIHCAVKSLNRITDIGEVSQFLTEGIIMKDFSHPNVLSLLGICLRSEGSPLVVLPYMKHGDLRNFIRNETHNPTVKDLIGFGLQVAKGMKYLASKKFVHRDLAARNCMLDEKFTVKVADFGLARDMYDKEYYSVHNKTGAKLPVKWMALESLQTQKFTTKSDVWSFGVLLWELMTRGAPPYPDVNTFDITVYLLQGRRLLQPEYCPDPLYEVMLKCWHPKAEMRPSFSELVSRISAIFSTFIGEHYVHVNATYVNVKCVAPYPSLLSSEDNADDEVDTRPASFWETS
In short: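 This plate-based kinase format uses immobilized phospholipase C-γ as substrate, phosphorylated by c-Met cytoplasmic domain (10 ng/mL) at 37° C for 15 minutes.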

[3] = 1 μM ATP (Km level), read-out: ALK Activity (ALK Kinase Inhibition, IC50)
[4] = 1 μM ATP (Km level), read-out: cMet Activity (c-Met Kinase Inhibition, IC50)
[5] = ALK kinase inhibition, 1 μM ATP, read-out: ALK Activity
[6] = c-Met kinase inhibition, 1 μM ATP, read-out: cMet Activity
[7] = 1 μM ATP (Km level), 30 ng/ml ALK, 37° C., 15 minutes, read-out: ALK Activity (ALK kinase inhibition, IC50 class)
[8] = 1 μM ATP (Km level), 10 ng/mL c-Met, read-out: cMet Activity (c-Met kinase inhibition, IC50 class)
[9] = ALK kinase inhibition, 1 μM ATP (Km level), read-out: ALK Activity
[10] = c-Met kinase inhibition, 1 μM ATP (Km level), read-out: cMet Activity

T1 sequence (Q9UM73 19-1620): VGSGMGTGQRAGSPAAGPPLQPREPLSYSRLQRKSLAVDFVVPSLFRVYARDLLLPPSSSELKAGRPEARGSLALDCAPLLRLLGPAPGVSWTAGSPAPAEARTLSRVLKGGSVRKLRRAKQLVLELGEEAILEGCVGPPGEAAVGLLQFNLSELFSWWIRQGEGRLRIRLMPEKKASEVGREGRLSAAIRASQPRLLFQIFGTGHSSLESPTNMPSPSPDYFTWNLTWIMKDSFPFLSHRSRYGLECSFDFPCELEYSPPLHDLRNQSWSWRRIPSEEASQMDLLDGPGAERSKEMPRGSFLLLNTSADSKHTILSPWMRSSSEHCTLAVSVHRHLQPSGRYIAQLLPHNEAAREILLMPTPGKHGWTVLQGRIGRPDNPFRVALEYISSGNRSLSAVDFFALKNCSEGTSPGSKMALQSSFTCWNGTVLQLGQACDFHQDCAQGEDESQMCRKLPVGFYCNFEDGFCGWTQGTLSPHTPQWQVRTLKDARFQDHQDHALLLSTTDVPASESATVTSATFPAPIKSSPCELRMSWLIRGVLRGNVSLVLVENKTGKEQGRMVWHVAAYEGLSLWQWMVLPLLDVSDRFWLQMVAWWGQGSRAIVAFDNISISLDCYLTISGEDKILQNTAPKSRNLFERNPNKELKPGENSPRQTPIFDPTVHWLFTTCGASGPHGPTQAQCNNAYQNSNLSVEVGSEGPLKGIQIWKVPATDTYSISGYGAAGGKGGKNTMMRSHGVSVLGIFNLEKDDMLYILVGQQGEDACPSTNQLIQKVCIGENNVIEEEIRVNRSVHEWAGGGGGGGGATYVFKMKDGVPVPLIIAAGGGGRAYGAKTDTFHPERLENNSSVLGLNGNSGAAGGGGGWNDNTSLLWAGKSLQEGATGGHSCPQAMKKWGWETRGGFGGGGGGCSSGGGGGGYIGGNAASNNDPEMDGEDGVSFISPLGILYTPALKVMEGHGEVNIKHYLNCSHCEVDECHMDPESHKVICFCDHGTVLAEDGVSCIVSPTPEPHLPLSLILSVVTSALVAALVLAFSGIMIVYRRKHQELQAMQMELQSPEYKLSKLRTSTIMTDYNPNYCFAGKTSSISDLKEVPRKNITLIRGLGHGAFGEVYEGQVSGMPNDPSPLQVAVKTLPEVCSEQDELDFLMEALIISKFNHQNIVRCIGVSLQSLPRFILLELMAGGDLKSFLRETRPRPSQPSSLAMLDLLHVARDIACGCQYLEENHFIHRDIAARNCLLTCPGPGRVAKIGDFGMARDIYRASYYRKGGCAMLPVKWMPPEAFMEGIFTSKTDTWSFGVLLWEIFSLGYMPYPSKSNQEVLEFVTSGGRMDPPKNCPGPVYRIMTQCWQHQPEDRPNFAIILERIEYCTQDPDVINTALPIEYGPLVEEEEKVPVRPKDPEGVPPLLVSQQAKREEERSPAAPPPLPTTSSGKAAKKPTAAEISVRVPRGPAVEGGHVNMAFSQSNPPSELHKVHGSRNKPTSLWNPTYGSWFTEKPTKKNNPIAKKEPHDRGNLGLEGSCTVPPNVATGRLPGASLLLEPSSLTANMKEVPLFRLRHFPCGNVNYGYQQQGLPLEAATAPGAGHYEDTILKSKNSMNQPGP

Cn1ccnc1-c1ccccc1Nc1nc(Nc2ccc3c(c2)CCC(NCC(F)F)CC3)ncc1Cl (stereo not shown) [Example 661, 5-Chloro-N*2*-[7-(2,2-difluoro-ethylamino)-6,7,8,9-tetrahydro-5H-benzocyclohepten-2-yl]-N*4*-[2-(1-methyl-1H-imidazol-2-yl)-phenyl]-pyrimidine-2,4-diamine]
IC50 [1, 3]: 100 to 1000 nM
IC50 [2, 4]: 100 to 1000 nM

COc1cc2c(cc1Nc1ncc(Cl)c(Nc3ccccc3S(=O)(=O)N3CCCC3)n1)NC(=O)CN(CC1CC1)C2 [Example 1668, 8-{5-Chloro-4-[2-(pyrrolidine-1-sulfonyl)-phenylamino]-pyrimidin-2-ylamino}-4-cyclopropylmethyl-7-methoxy-1,3,4,5-tetrahydro-benzo[e][1,4]diazepin-2-one]
IC50 [1, 5]: < 100 nM
IC50 [2, 6]: 1000 to 10000 nM

CN(CCC#N)C(=O)c1ccccc1Nc1nc(Nc2ccc3c(c2)CCCC(=O)N3C)ncc1Cl [Example 1682, 2-[5-Chloro-2-(1-methyl-2-oxo-2,3,4,5-tetrahydro-1H-benzo[b]azepin-7-ylamino)-pyrimidin-4-ylamino]-N-(2-cyano-ethyl)-N-methyl-benzamide]
IC50 [1, 5]: < 100 nM
IC50 [2, 6]: 100 to 1000 nM

CNC(=O)c1sc(Br)c(C)c1Nc1nc(Nc2ccc3c(c2)CCOC(=O)N3C)ncc1Cl [Example 1771, 5-Bromo-3-[5-chloro-2-(5-methyl-6-oxo-5,6,8,9-tetrahydro-7-oxa-5-aza-benzocyclohepten-2-ylamino)-pyrimidin-4-ylamino]-4-methyl-thiophene-2-carboxylic acid methylamide]
IC50 [1, 5]: 100 to 1000 nM
IC50 [2, 6]: < 100 nM

Cc1cccnc1-c1ccccc1Nc1nc(Nc2ccc3c(c2)CCC(N2CCOCC2)CC3)ncc1Cl (stereo not shown) [Example 1020, 5-Chloro-N*4*-[2-(3-methyl-pyridin-2-yl)-phenyl]-N*2*-(7-morpholin-4-yl-6,7,8,9-tetrahydro-5H-benzocyclohepten-2-yl)-pyrimidine-2,4-diamine]
IC50 [1, 7]: < 100 nM
IC50 [2, 8]: 1000 to 10000 nM

CCN1CCc2ccc(Nc3ncc(Cl)c(N[C@H]4CCCC[C@H]4C(=O)NC)n3)cc2CC1 (relative stereo) [Example 200, cis-2-[5-Chloro-2-(3-ethyl-2,3,4,5-tetrahydro-1H-benzo[d]azepin-7-ylamino)-pyrimidin-4-ylamino]-cyclohexanecarboxylic acid methylamide]
IC50 [1, 9]: < 100 nM
IC50 [2, 10]: 100 to 1000 nM

COCCN1CCc2ccc(Nc3ncc(Cl)c(N[C@H]4CC[C@H](N(CC#N)S(C)(=O)=O)CC4)n3)cc2CC1 [Example 1385, trans-N-(4-{5-Chloro-2-[3-(2-methoxy-ethyl)-2,3,4,5-tetrahydro-1H-benzo[d]azepin-7-ylamino]-pyrimidin-4-ylamino}-cyclohexyl)-N-cyanomethyl-methanesulfonamide]
IC50 [1, 7]: 100 to 1000 nM
IC50 [2, 8]: 1000 to 10000 nM

CCN1C(=O)C(NC(=O)C(F)(F)F)CCc2c1ccc(Nc1ncc(Cl)c(N[C@@H]3CCCC[C@H]3NS(C)(=O)=O)n1)c2OC (stereo partly drawn) [Example 1335, N-{7-[5-Chloro-4-((1R,2R)-2-methanesulfonylamino-cyclohexylamino)-pyrimidin-2-ylamino]-1-ethyl-6-methoxy-2-oxo-2,3,4,5-tetrahydro-1H-benzo[b]azepin-3-yl}-2,2,2-trifluoro-acetamide]
IC50 [1, 7]: < 100 nM
IC50 [2, 8]: > 10000 nM

CNC(=O)c1cc(C)cc(C)c1Nc1nc(Nc2ccc3c(c2)CCOC(=O)N3C)ncc1Cl [Example 1750, 2-[5-Chloro-2-(5-methyl-6-oxo-5,6,8,9-tetrahydro-7-oxa-5-aza-benzocyclohepten-2-ylamino)-pyrimidin-4-ylamino]-3,5,N-trimethyl-benzamide]
IC50 [1, 5]: 1000 to 10000 nM
IC50 [2, 6]: < 100 nM

COCCN1CCc2ccc(Nc3ncc(Cl)c(Nc4ccccc4C(=O)NCCN4CCCC4)n3)cc2CC1 [Example 1416, 2-{5-Chloro-2-[3-(2-methoxy-ethyl)-2,3,4,5-tetrahydro-1H-benzo[d]azepin-7-ylamino]-pyrimidin-4-ylamino}-N-(2-pyrrolidin-1-yl-ethyl)-benzamide]
IC50 [1, 7]: 100 to 1000 nM
IC50 [2, 8]: 100 to 1000 nM

CS(=O)(=O)Nc1ccccc1Nc1nc(Nc2ccc3c(c2)CNCCS3(=O)=O)ncc1Cl [Example 523, N-{2-[5-Chloro-2(5,5dioxo-6,7,8,9-tetrahydro-5H-5lambda*6*-thia-8-aza-benzocyclohepten-2-ylamino)-pyrimidin-4-ylamino]-phenyl}-methanesulfonamide]
IC50 [1, 3]: 100 to 1000 nM
IC50 [2, 4]: 1000 to 10000 nM

CC1(C)CCC(=O)Nc2cc(Nc3ncc(Cl)c(Nc4c(F)cccc4OCC#N)n3)ccc21 [Example 930, {2-[5-Chloro-2-(5,5-dimethyl-2-oxo-2,3,4,5-tetrahydro-1H-1-benzazepin-8-ylamino)-pyrimidin-4-ylamino]-3-fluoro-phenoxy}-acetonitrile]
IC50 [1, 3]: < 100 nM
IC50 [2, 4]: < 100 nM

CN1C(=O)CCC(C)(C)c2cc(Nc3ncc(Cl)c(N[C@@H]4CCCC[C@H]4NS(C)(=O)=O)n3)ccc21 [Example 385, N-{(1R,2R)-2-[5-Chloro-2-(1,5,5-trimethyl-2-oxo-2,3,4,5-tetrahydro-1H-benzo[b]azepin-7-ylamino)-pyrimidin-4-ylamino]-cyclohexyl}-methanesulfonamide]
IC50 [1, 9]: < 100 nM
IC50 [2, 10]: 100 to 1000 nM

COc1cc2c(cc1Nc1ncc(Cl)c(N[C@@H]3CCCC[C@H]3NS(C)(=O)=O)n1)CCC(N1CCN(C)CC1)CC2 (single isomer, unassigned) [Example 1101]
IC50 [1, 7]: < 100 nM
IC50 [2, 8]: > 10000 nM

COc1cc2c(cc1Nc1ncc(Cl)c(Nc3ccc(N4CCOCC4)cc3C)n1)CCN(CC(=O)N(C)C)CC2 [Example 801, 2-{7-[5-Chloro-4-(2-methyl-4-morpholin-4-yl-phenylamino)-pyrimidin-2-ylamino]-8-methoxy-1,2,4,5-tetrahydro-benzo[d]azepin-3-yl}-N,N-dimethyl-acetamide]
IC50 [1, 3]: < 100 nM
IC50 [2, 4]: > 10000 nM

COc1cc2c(cc1Nc1ncc(Cl)c(Nc3ccccc3S(=O)(=O)N3CC[C@H](O)C3)n1)CCN(CC(C)(C)O)CC2 [Example 1562, (S)-1-(2-{5-Chloro-2-[3-(2-hydroxy-2-methyl-propyl)-8-methoxy-2,3,4,5-tetrahydro-1H-3-benzazepin-7-ylamino]-pyrimidin-4-ylamino}-benzenesulfonyl)-pyrrolidin-3-ol]
IC50 [1, 5]: < 100 nM
IC50 [2, 6]: 100 to 1000 nM

COc1cc2c(cc1Nc1ncc(Cl)c(Nc3ccc(F)cc3S(=O)(=O)N(C)C)n1)CCN(CC(=O)N(C)C)CC2 [Example 831, 2-{7-[5-Chloro-4-(2-dimethylsulfamoyl-4-fluoro-phenylamino)-pyrimidin-2-ylamino]-8-methoxy-1,2,4,5-tetrahydro-benzo[d]azepin-3-yl}-N,N-dimethyl-acetamide]
IC50 [1, 3]: < 100 nM
IC50 [2, 4]: > 10000 nM

COc1c(Nc2ncc(Cl)c(N[C@H]3[C@@H](C(N)=O)[C@@H]4C=C[C@H]3C4)n2)ccc2c1CC[C@@H](N1CCOCC1)CC2 [Example 882, (1S,2S,3R,4R)-3-[5-Chloro-2-((S)-1-methoxy-7-morpholin-4-yl-6,7,8,9-tetrahydro-5H-benzocyclohepten-2-ylamino)-pyrimidin-4-ylamino]-bicyclo[2.2.1]hept-5-ene-2-carboxylic acid amide]
IC50 [1, 3]: < 100 nM
IC50 ([2]; cMet Activity (c-Met Kinase Inhibition, IC50), 1 μM ATP (Km level)): > 10000 nM

CNC(=O)c1cccc(F)c1Nc1nc(Nc2ccc3c(c2)-n2ccnc2CCC3)ncc1Cl [Example 1837, 2-[5-Chloro-2-(5,6-dihydro-4H-3,10b-diaza-benzo[e]azulen-9-ylamino)-pyrimidin-4-ylamino]-3-fluoro-N-methyl-benzamide]
IC50 [1, 5]: < 100 nM
IC50 [2, 6]: < 100 nM

CNC(=O)c1cccc(F)c1Nc1nc(Nc2ccc3c(c2)NC(=O)CN(C(=O)OCc2ccccc2)C3)ncc1Cl [Example 1857, 8-[5-Chloro-4-(2-fluoro-6-methylcarbamoyl-phenylamino)-pyrimidin-2-ylamino]-2-oxo-1,2,3,5-tetrahydro-benzo[e][1,4]diazepine-4-carboxylic acid benzyl ester]
IC50 [1, 5]: 100 to 1000 nM
IC50 [2, 6]: < 100 nM

COCCN1CCc2ccc(Nc3ncc(Cl)c(Nc4ccc(N5CCOCC5)cc4S(=O)(=O)N(C)C)n3)cc2CC1 [Example 853, 2-{5-Chloro-2-[3-(2-methoxy-ethyl)-2,3,4,5-tetrahydro-1H-benzo[d]azepin-7-ylamino]-pyrimidin-4-ylamino}-N,N-dimethyl-5-morpholin-4-yl-benzenesulfonamide]
IC50 [1, 3]: < 100 nM
IC50 [2, 4]: 1000 to 10000 nM

COc1cc2c(cc1Nc1ncc(Cl)c(Nc3ccc(N4CCC(N5CCN(C)CC5)CC4)cc3OC)n1)CCN(CC(=O)N(C)C)CC2 [Example 819, 2-[7-(5-Chloro-4-{2-methoxy-4-[4-(4-methyl-piperazin-1-yl)-piperidin-1-yl]-phenylamino}-pyrimidin-2-ylamino)-8-methoxy-1,2,4,5-tetrahydro-benzo[d]azepin-3-yl]-N,N-dimethyl-acetamide]
IC50 [1, 3]: < 100 nM
IC50 [2, 4]: > 10000 nM

Cc1cccc(C(N)=O)c1Nc1nc(Nc2ccc3c(c2)N(C(C)C)C(=O)CCC3)ncc1Cl [Example 1475, 2-[5-Chloro-2-(1-isopropyl-2-oxo-2,3,4,5-tetrahydro-1H-benzo[b]azepin-8-ylamino)-pyrimidin-4-ylamino]-3-methyl-benzamide]
IC50 [1, 5]: 100 to 1000 nM
IC50 [2, 6]: > 10000 nM
